Data on seven compounds can be found in ChEMBL document CHEMBL3992523, “Potent Inhibition of Nitric Oxide-Releasing Bifendate Derivatives against Drug-Resistant K562/A02 Cells in Vitro and in Vivo” (J Med Chem, 2017).

pIC50: −log10 of the molar value. Activity calls are given as the source filed them. The rule behind the calls is not given here.

The nature of data set [1]: Drug metabolism in P-gp overexpressing/drug resistant human K562/A02 cells assessed as nitric oxide production at 100 uM measured at 240 mins by Griess assay. As to conditions: k562/a02, 4 h. The format is ADME, cell-based. On the technique in general: The Griess reaction detects nitrite, a stable product of nitric oxide.
Data set [2] has as its system K562. As to the kind of experiment: Anti-proliferative activity against human K562 cells measured after 72 hrs by MTS assay. The format is functional, cell-based. Particulars: K562, 72 h. (Tetrazolium assays rely on reduction of a dye to a coloured formazan, in cell work by metabolically active cells.)
Data set [3] is described as follows: Resistant factor, ratio of IC50 for P-gp overexpressing/drug resistant human K562/A02 cells to IC50 for human K562 cells. The format is functional.
The test system of data set [4] is K562/A02. As to the kind of experiment: Anti-proliferative activity against P-gp overexpressing/drug resistant human K562/A02 cells measured after 72 hrs by MTS assay. The data set is classed as functional, cell-based. As to conditions: K562/A02, 72 h.
The subject of data set [5] is K562/A02. As to the kind of experiment: Anti-proliferative activity against P-gp overexpressing/drug resistant human K562/A02 cells at 150 uM in presence of hemoglobin measured after 24 hrs by MTS assay. The format is functional, cell-based.
Data set [6] in a line: Toxicity in BALB/c nude mouse administered via ip for every 3 days of four injections. As to conditions: in vivo.
Data set [7] relates to K562/A02. As to the kind of experiment: Antitumor activity against P-gp overexpressing/drug resistant human K562/A02 cells xenografted in BALB/c nude mouse assessed as reduction in tumor size at 4 mg/kg, iv administered every other day for 21 days measured post last dose. The data set is classed as functional, organism-based.
Data set [8] relates to K562/A02. As to the kind of experiment: Antitumor activity against P-gp overexpressing/drug resistant human K562/A02 cells xenografted in BALB/c nude mouse assessed as tumor growth inhibition at 4 mg/kg, iv administered every other day for 21 days measured post last dose relative to control. The data set is classed as functional. Particulars: 504 h, read-out: TGI.
The subject of data set [9] is K562/A02. As to the kind of experiment: Antitumor activity against P-gp overexpressing/drug resistant human K562/A02 cells xenografted in BALB/c nude mouse assessed as reduction in tumor weight at 4 mg/kg, iv administered every other day for 21 days measured post last dose. The format is functional, organism-based. (In general: In xenograft studies the graft and the host belong to different species.)

For data set [10], the species on record is Homo sapiens. As to the kind of experiment: Effect on P-gp ATPase activity in human K562/A02 cell membranes assessed as remaining ATP level by measuring relative light units at 200 uM in presence of MgATP measured after 40 mins by luminescence based P-gp-Glo assay.
Data set [11] can be described thus: Permeability in human Caco2 cells assessed as concentration ratio of basolateral to apical side at 100 uM measured at 5 mins post dose by HPLC analysis. As to conditions: caco-2, 5 min. The format is ADME, cell-based.
Data set [12] is described as follows: Permeability in human Caco2 cells assessed as concentration ratio of basolateral to apical side at 100 uM measured at 10 mins post dose by HPLC analysis. As to conditions: caco-2, 10 min. The format is ADME, cell-based.
The test system of data set [13] is K562. As to the kind of experiment: Effect on rhodamine123 accumulation in human K562 cells at 0.33 to 10 uM measured after 1 hr by flow cytometry. The data set is classed as functional, cell-based.
Data set [14] is filed under the species Homo sapiens. As to the kind of experiment: Inhibition of P-gp in human K562/A02 cells assessed as increase in intracellular rhodamine123 accumulation at 0.33 to 10 uM measured after 1 hr by flow cytometry. The data set is classed as cell-based.

A word on the pIC50: it is the negative decadic logarithm of the IC50, by convention in mol/L. Read a high pIC50 as a low IC50.

For the compound `COC(=O)c1cc(OC)c2c(c1-c1c(C(=O)O)cc(OC)c3c1OCO3)OCO2`, the Drug metabolism result in data set [1] is “Metabolite_Notdetected”. For the same compound, the pIC50 in data set [2] was 3.86; in data set [4], 3.90. In addition, in data set [3], the “Ratio IC50” value is given as 0.9. Moreover, the result in [5] was inactive.
In data set [6], `COc1cccc2c1C(=O)c1c(O)c3c(c(O)c1C2=O)C[C@@](O)(C(=O)CO)C[C@@H]3O[C@H]1C[C@H](N)[C@H](O)[C@H](C)O1.Cl` [DOXORUBICIN HYDROCHLORIDE] gave an MTD at 72 h of 4 mg/kg. Besides, the outcome in data set [7] and in data set [9] was inactive. Also, the inhibition in vivo at 4 mg/kg in data set [8] was determined as 18.6%. For the same compound, the pIC50 in [2] is 6.23; in data set [4], 4.61. Further, the “Ratio IC50” value in data set [3] is on record as 41.5.
For SODIUM ORTHOVANAD, the Activity in data set [10] was found to be 242000 RLU.
In the case of `O=C(CN1CCC(O)CC1)OCCCCOc1no[n+]([O-])c1S(=O)(=O)c1ccccc1`, the Ratio in data set [11] came to 0.02; in data set [12] it was 0.03. Also, the pIC50 in [2] was 5.65; in data set [4], 5.39. Also, the “Ratio IC50” value in [3] came out at 1.8.
Consider `COc1ccc(CCN(C)CCCC(C#N)(c2ccc(OC)c(OC)c2)C(C)C)cc1OC` (centres undefined), for which, in data set [10], the Activity was determined as 179000 RLU. Further, in data set [13], the outcome was inactive. In addition, the inhibition result in data set [14] is “Active”.
On to `COC(=O)c1cc(OC)c2c(c1-c1c(C(=O)OC3CCN(CC(=O)OCCOCCOc4no[n+]([O-])c4S(=O)(=O)c4ccccc4)CC3)cc(OC)c3c1OCO3)OCO2`, for which the Drug metabolism entry in data set [1] is listed as “Metabolite_Detected”. Also, the pIC50 in [2] is 6.19; in data set [4], 6.05. Further, the “Ratio IC50” value in [3] was 1.4.
Consider `COC(=O)c1cc(OC)c2c(c1-c1c(C(=O)OCCN3CCN(CC(=O)OC(C)(C)CCOc4no[n+]([O-])c4S(=O)(=O)c4ccccc4)CC3)cc(OC)c3c1OCO3)OCO2`, for which the Drug metabolism result in [1] is recorded as “Metabolite_Detected”. Also, the negative logarithm of the IC50 (pIC50) was 6.07 in [2] and 5.82 in data set [4]. Further, in data set [3], the “Ratio IC50” value was 1.8.
